Data: ChEMBL document CHEMBL5126643, “Design and Characterization of Novel Small Molecule Activators of Excitatory Amino Acid Transporter 2” (ACS Med Chem Lett, 2022)
pEC50: −log10 of the molar value.

What was measured:
[1] = Lipophilicity, log P of the compound; format: physicochemical; settings: octanol/water
[2] = Cmax in Wistar rat brain at 5 mg/kg, iv measured up to 24 hrs by LC-MS/MS analysis; format: ADME, organism-based; parameters: dose 5 mg/kg, time < 24 hrs, route iv
[3] = Tmax in Wistar rat brain at 5 mg/kg, iv measured up to 24 hrs by LC-MS/MS analysis; format: ADME, organism-based
[4] = AUC in Wistar rat brain at 5 mg/kg, iv measured up to 24 hrs by LC-MS/MS analysis; format: ADME, organism-based; parameters: time < 24 hrs, dose 5 mg/kg, route iv; settings: in vivo
[5] = Half life in Wistar rat brain at 5 mg/kg, iv measured up to 24 hrs by LC-MS/MS analysis; format: ADME, organism-based
[6] = Cmax in Wistar rat plasma at 5 mg/kg, iv measured up to 24 hrs by LC-MS/MS analysis; format: ADME, organism-based; parameters: dose 5 mg/kg, time < 24 hrs, route iv
[7] = Tmax in Wistar rat plasma at 5 mg/kg, iv measured up to 24 hrs by LC-MS/MS analysis; format: ADME, organism-based
[8] = AUC in Wistar rat plasma at 5 mg/kg, iv measured up to 24 hrs by LC-MS/MS analysis; format: ADME, organism-based; parameters: dose 5 mg/kg, time < 24 hrs, route iv; settings: in vivo
[9] = Half life in Wistar rat plasma at 5 mg/kg, iv measured up to 24 hrs by LC-MS/MS analysis; format: ADME, organism-based
[10] = Cmax in Wistar rat brain at 10 mg/kg, ip measured up to 24 hrs by LC-MS/MS analysis; format: ADME, organism-based; parameters: time < 24 hrs, dose 10 mg/kg, route ip
[11] = Tmax in Wistar rat brain at 10 mg/kg, ip measured up to 24 hrs by LC-MS/MS analysis; format: ADME, organism-based
[12] = AUC in Wistar rat brain at 10 mg/kg, ip measured up to 24 hrs by LC-MS/MS analysis; format: ADME, organism-based; parameters: dose 10 mg/kg, time < 24 hrs, route ip; settings: in vivo
[13] = Half life in Wistar rat brain at 10 mg/kg, ip measured up to 24 hrs by LC-MS/MS analysis; format: ADME, organism-based
[14] = Cmax in Wistar rat plasma at 10 mg/kg, ip measured up to 24 hrs by LC-MS/MS analysis; format: ADME, organism-based; parameters: dose 10 mg/kg, time < 24 hrs, route ip
[15] = Tmax in Wistar rat plasma at 10 mg/kg, ip measured up to 24 hrs by LC-MS/MS analysis; format: ADME, organism-based
[16] = AUC in Wistar rat plasma at 10 mg/kg, ip measured up to 24 hrs by LC-MS/MS analysis; format: ADME, organism-based; parameters: time < 24 hrs, dose 10 mg/kg, route ip; settings: in vivo
[17] = Half life in Wistar rat plasma at 10 mg/kg, ip measured up to 24 hrs by LC-MS/MS analysis; format: ADME, organism-based
[18] = Cmax in Wistar rat brain at 10 mg/kg, po measured up to 24 hrs by LC-MS/MS analysis; format: ADME, organism-based; parameters: dose 10 mg/kg, time < 24 hrs, route po
[19] = Tmax in Wistar rat brain at 10 mg/kg, po measured up to 24 hrs by LC-MS/MS analysis; format: ADME, organism-based
[20] = AUC in Wistar rat brain at 10 mg/kg, po measured up to 24 hrs by LC-MS/MS analysis; format: ADME, organism-based; parameters: time < 24 hrs, dose 10 mg/kg, route po; settings: in vivo
[21] = Cmax in Wistar rat plasma at 10 mg/kg, po measured up to 24 hrs by LC-MS/MS analysis; format: ADME, organism-based; parameters: dose 10 mg/kg, time < 24 hrs, route po
[22] = Tmax in Wistar rat plasma at 10 mg/kg, po measured up to 24 hrs by LC-MS/MS analysis; format: ADME, organism-based
[23] = AUC in Wistar rat plasma at 10 mg/kg, po measured up to 24 hrs by LC-MS/MS analysis; format: ADME, organism-based; parameters: time < 24 hrs, dose 10 mg/kg, route po; settings: in vivo
[24] = Half life in Wistar rat plasma at 10 mg/kg, po measured up to 24 hrs by LC-MS/MS analysis; format: ADME, organism-based
[25] = Bioavailability in Wistar rat plasma at 10 mg/kg, ip measured up to 24 hrs by LC-MS/MS analysis; format: ADME, organism-based
[26] = Oral bioavailability in Wistar rat plasma at 10 mg/kg measured up to 24 hrs by LC-MS/MS analysis; format: ADME, organism-based
[27] = target: Excitatory amino acid transporter 2 (Homo sapiens, UniProt P43004); assay: Activation of human EAAT2 overexpressed in MDCK cells assessed as glutamate reuptake incubated for 5 mins by LCMS assay; format: cell-based
Sequence of Excitatory amino acid transporter 2 (P43004 whole entry): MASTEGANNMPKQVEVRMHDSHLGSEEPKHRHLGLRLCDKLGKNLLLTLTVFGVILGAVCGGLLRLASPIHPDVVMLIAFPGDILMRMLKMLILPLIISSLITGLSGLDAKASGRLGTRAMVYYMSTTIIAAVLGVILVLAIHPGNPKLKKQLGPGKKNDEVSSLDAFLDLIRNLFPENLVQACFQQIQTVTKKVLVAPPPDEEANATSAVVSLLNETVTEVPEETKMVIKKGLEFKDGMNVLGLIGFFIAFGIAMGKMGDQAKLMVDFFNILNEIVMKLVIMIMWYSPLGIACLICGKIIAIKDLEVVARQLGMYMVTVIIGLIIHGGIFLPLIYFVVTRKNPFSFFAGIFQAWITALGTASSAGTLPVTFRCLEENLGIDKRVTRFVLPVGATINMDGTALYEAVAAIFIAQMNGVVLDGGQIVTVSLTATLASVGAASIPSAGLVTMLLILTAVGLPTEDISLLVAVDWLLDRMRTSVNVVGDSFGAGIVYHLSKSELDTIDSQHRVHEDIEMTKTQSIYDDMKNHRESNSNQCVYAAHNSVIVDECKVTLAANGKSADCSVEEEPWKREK

[28] = Half life in Wistar rat brain at 10 mg/kg, po measured up to 24 hrs by LC-MS/MS analysis; format: ADME, organism-based
[29] = AUC in CD-1 mouse brain at 10 mg/kg, ip measured up to 8 hrs by LC-MS/MS analysis; format: ADME, organism-based; parameters: time < 8 hrs, dose 10 mg/kg, route ip; settings: in vivo
[30] = Primary phase half life in CD-1 mouse brain at 10 mg/kg, ip measured up to 8 hrs by LC-MS/MS analysis; format: ADME, organism-based; settings: read-out: alphat1/2 (converted)
[31] = Cmax in CD-1 mouse brain at 10 mg/kg, ip measured up to 8 hrs by LC-MS/MS analysis; format: ADME, organism-based; parameters: dose 10 mg/kg, time < 8 hrs, route ip
[32] = Tmax in CD-1 mouse brain at 10 mg/kg, ip measured up to 8 hrs by LC-MS/MS analysis; format: ADME, organism-based
[33] = AUC in CD-1 mouse plasma at 10 mg/kg, ip measured up to 8 hrs by LC-MS/MS analysis; format: ADME, organism-based; parameters: time < 8 hrs, dose 10 mg/kg, route ip; settings: in vivo
[34] = Primary phase half life in CD-1 mouse plasma at 10 mg/kg, ip measured up to 8 hrs by LC-MS/MS analysis; format: ADME, organism-based; settings: read-out: alphat1/2 (converted)
[35] = Cmax in CD-1 mouse plasma at 10 mg/kg, ip measured up to 8 hrs by LC-MS/MS analysis; format: ADME, organism-based; parameters: dose 10 mg/kg, time < 8 hrs, route ip
[36] = Tmax in CD-1 mouse plasma at 10 mg/kg, ip measured up to 8 hrs by LC-MS/MS analysis; format: ADME, organism-based

| SMILES | logP [1] | Cmax [2] | Tmax [3] | AUC [4] | half-life [5] | Cmax [6] | Tmax [7] | AUC [8] | half-life [9] | Cmax [10] | Tmax [11] | AUC [12] | half-life [13] | Cmax [14] | Tmax [15] | AUC [16] | half-life [17] | Cmax [18] | Tmax [19] | AUC [20] | further results |
| --- | --- | --- | --- | --- | --- | --- | --- | --- | --- | --- | --- | --- | --- | --- | --- | --- | --- | --- | --- | --- | --- |
| COc1ccc2[nH]c(=O)c(C(c3nnnn3CCc3ccccc3)N3CCN(C4CCCCC4)CC3)cc2c1 (stereo not drawn) | > 6 | – | – | – | – | – | – | – | – | – | – | – | – | – | – | – | – | – | – | – | – |
| COc1ccc(NC(=O)C(=O)N2CCN(c3ccccc3)CC2)cc1 | – | 371 ng/g | 0.5 h | 443.23 ng·h/g | 1.52 h | 567 ng/g | 0.5 h | 919.43 ng·h/g | 6.08 h | 204 ng/g | 0.5 h | 429.85 ng·h/g | 2.26 h | 450 ng/g | 0.63 h | 1073.21 ng·h/g | 6.22 h | 25 ng/g | 1.38 h | 183 ng·h/g | Cmax [21]: 42.9 ng/g; Tmax [22]: 3.25 h; AUC [23]: 321.93 ng·h/g; half-life [24]: 5.34 h; bioavailability [25]: 58.4%; bioavailability [26]: 17.5% |
| Cc1ccccc1CSc1ccc(-c2ccccn2)nn1 | – | – | – | – | – | – | – | – | – | – | – | – | – | – | – | – | – | – | – | – | pEC50 [27]: 5.74 |
| CO/N=C(\C(=O)N[C@@H]1C(=O)N2C(C(=O)O)=C(CSc3nc(=O)c(=O)[nH]n3C)CS[C@H]12)c1csc(N)n1 [CEFTRIAXONE] | – | – | – | – | – | – | – | – | – | – | – | – | – | – | – | – | – | – | – | – | pEC50 [27]: < 5.00 |

Now from value to molecule, other results behind:

| logP [1] | Cmax [2] | Tmax [3] | AUC [4] | half-life [5] | Cmax [6] | Tmax [7] | AUC [8] | half-life [9] | Cmax [10] | Tmax [11] | AUC [12] | half-life [13] | Cmax [14] | Tmax [15] | AUC [16] | half-life [17] | Cmax [18] | Tmax [19] | AUC [20] | SMILES | further results |
| --- | --- | --- | --- | --- | --- | --- | --- | --- | --- | --- | --- | --- | --- | --- | --- | --- | --- | --- | --- | --- | --- |
| – | 1220 ng/g | 0.5 h | 1959.7 ng·h/g | 1.03 h | 307 ng/g | 0.5 h | 315.635 ng·h/g | 0.651 h | 2460 ng/g | 0.5 h | 4414.35 ng·h/g | 1.62 h | 262 ng/g | 0.5 h | 536.768 ng·h/g | 1.02 h | 1170 ng/g | 0.88 h | 2816.8 ng·h/g | COc1ccc(NC(=O)C(=O)NCC(c2ccccc2)N2CCN(C)CC2)cc1 (stereo not drawn) | half-life [28]: 1.81 h; Cmax [21]: 204 ng/g; Tmax [22]: 0.875 h; AUC [23]: 507.2 ng·h/g; half-life [24]: 4.76 h; bioavailability [25]: 85%; bioavailability [26]: 80.3% |
| > 6 | – | – | – | – | – | – | – | – | – | – | – | – | – | – | – | – | – | – | – | COc1ccc2[nH]c(=O)c(C(c3nnnn3CCc3ccccc3)N3CCN(c4cccc(C(F)(F)F)c4)CC3)cc2c1 (stereo not drawn) | AUC [29]: 86 ng·h/g; half-life [30]: 3.5 h; Cmax [31]: 30 ng/mL; Tmax [32]: 0.5 h; AUC [33]: 1339 ng·h/g; half-life [34]: 3 h; Cmax [35]: 717 ng/mL; Tmax [36]: 0.5 h |
